Like-named read-outs stand apart in the source and are kept apart here.
What was measured:
[1] = test system: Planktonic form of bacteria; conditions: cited from earlier work
bacteria [2] = conditions: cited from earlier work
Burkholderia cepacia = conditions: delivered to the lung via a nebulizer; cited from earlier work
[3] = test system: infection from HD catheters; conditions: 2 controlled studies; cited from earlier work
[4] = 30 g/day infused; cited from earlier work
typical bacteria [5] = conditions: cited from earlier work
[6] = over several years at room temperature; cited from earlier work
[7] = Diffusion through silicone rubber catheter wall; type: physicochemical; conditions: silicone rubber 2 mm ID, 0.5 mm wall, filled with water, 2% Taurolidine bath, UV-Vis
Method: 4. Taurolidine is a small molecule able to pass through human skin as well as through polymeric materials passively by diffusion which is driven by a concentration gradient. Experiments were conducted to determine if Taurolidine is able to diffuse through silicone rubber at a rate sufficient to achieve clinical significance. The experiment was conducted with a HD catheter-sized silicone rubber (i.e., 2 mm ID and 0.5 mm wall thickness). This was filled with water and capped off. It was immersed in a 2% Taurolidine bath. Within 3 days the inner volume equilibrated with the Taurolidine bath. The sensing instrument was a UV-Vis spectrometer.

[8] = cited from earlier work
[9] = in vivo; cited from earlier work
typical bacteria [10] = experiment: Minimum bactericidal concentration (MBC); type: cell-based
[11] = cited from earlier work; remark: listed apart in the source
[12] = test system: resistant Burkholderia cepacia; conditions: isolates from adult cystic fibrosis patients; cited from earlier work
bacteria [13] = conditions: 25 years of clinical use and many in-vitro tests; cited from earlier work
[14] = test system: clinically significant bacterial strains and some important fungi; conditions: published test results; cited from earlier work
[15] = Pharmacokinetics, central blood values after IV dose; type: in vivo; conditions: human, corresponds to first time constant 0.3
Source text: (§1) FIG. 1 illustrates the clearance of a typical antibiotic in the blood stream. It is a typical power decay curve after drug administration. Table 3 lists important variables which determine the biocidal effect on bacteria in the blood stream. The 5 factors in the upper portion of the table define the characteristics for Vancomycin, a typical antibiotic, and the characteristics for Taurolidine. Lower in the table is the portion called Surrogate Markers. These markers are Pharmacokinetic/Pharmacodynamic (PK/PD) values calculated from the concentration profiles in the body for specifics sites and drugs to guide therapy. The derived parameters have been estimated for Vancomycin (see FIG. 1, which is average values defined in the drug label with data obtained from human trials). Taurolidine Markers have been obtained from various literature sources. The Markers are useful in predicting antimicrobial drug efficacy in infection eradication. Of course, the values of the PK/PD parameters must be for the specific bacteria causing the infection and for the specific body site.
Kinetic parameters from Steinbach et al.^28 and infusion data from Willatts et al.^27 were used for the calculation. Taurolidine diffuses rapidly and body water concentration is equivalent to the plasma water concentration. […]

[16] = Max tolerated dose and max potential delivery; type: in vivo; conditions: calculated in footnote a
Source text: as §1

SMILES: O=S1(=O)CCN(CN2CCS(=O)(=O)NC2)CN1 [Taurolidine, 4,4′ Methlyen-bis(tetrahydro-2H-1,4-thiadiazin-1,1dioxide)]
- exposure to achieve killing action [1]: Planktonic form of bacteria requires approximately 2 hours
- concentration needed to show minimum effectiveness (bacteria [2]): > 0.05%
- lower end range for MIC (bacteria [2]): approximately 0.5 mg/mL
- reduction in bacterial load (Burkholderia cepacia): failure to achieve a significant reduction in bacterial load in most patients
- reduction in infection compared to conventional heparin lock [3]: ~2 controlled studies resulted in approximately 95%
- benefit of Taurolidine infusion in sepsis syndrome [4]: No benefits
- decremental effect of Taurolidine infusion [4]: not shown any statistically significant decremental effect
- MBC (typical bacteria [5]): MBC than antibiotics. (i.e., MBC of 2 mg/ml vs. 2 ug/ml
- stability in powder or aqueous solution [6]: Taurolidine in powder or aqueous solution is stable
- time for inner volume to equilibrate with the Taurolidine bath [7]: ≤ 3 days
- Peak Plasma Concentration (CP) ([8]; cell adds: Not applicable for Taurolidine): 150 μg/ml^28
- T1/2 (Drug Half Life in Blood) ([8]; first value of 70/140, footnote b, time const 0.57): ~70 min
- T1/2 (Drug Half Life in Blood) ([8]; second value of 70/140, footnote b, first time constant 0.3): ~140 min
- concentration producing pain in most tissue on contact [9]: ≥ 10000 µg/mL
- pain on direct contact with most tissue [9]: Direct contact with most tissue causes intense pain
- MBC relative to antibiotics (typical bacteria [10]): Taurolidine has an approximate 1000 times higher
- Max Tolerated Dose [11]: >30 g/day^27
- in vitro response [12]: positive response
- bacterial resistance (bacteria [13]): 1. No Bacterial Resistance
- broad spectrum antimicrobial effect [14]: Effective against substantially all clinically significant
- half-life [15]: ~2.3 h

SMILES: CN[C@H](CC(C)C)C(=O)N[C@H]1C(=O)N[C@@H](CC(N)=O)C(=O)N[C@H]2C(=O)N[C@H]3C(=O)N[C@H](C(=O)N[C@H](C(=O)O)c4cc(O)cc(O)c4-c4cc3ccc4O)[C@H](O)c3ccc(c(Cl)c3)Oc3cc2cc(c3O[C@@H]2O[C@H](CO)[C@@H](O)[C@H](O)[C@H]2O[C@H]2C[C@](C)(N)[C@H](O)[C@H](C)O2)Oc2ccc(cc2Cl)[C@H]1O [Vancomycin]
- MIC (Minimum Inhibitory Concentration) (bacteria [2]): <4 μg/mL^29
- Peak Plasma Concentration (CP) ([8]; average values from drug label, FIG. 1): 50 µg/mL
- T1/2 (Drug Half Life in Blood) [8]: ~7 hours^30
- Max Tolerated Dose [16]: >5 g/day (See footnote a)
